In test [1] the test system is mice. The test is described as follows: tail-flick test in mice. The settings on record: Mus musculus, sc, 0.5 h, subcutaneous; calculated as the free base; 30 min pretreatment. It is filed as in vivo, mouse (male Charles River, Swiss Strain). Here is the method: (B) Tail-flick test in mice
The methodology employed is based on that described by D'Amour and Smith, J. Pharmacol. Exp. Ther. 72, 74/1941.
Male Charles River mice (Swiss Strain), 22-34g body weight were used. Animals were allowed food and water ad libitum and were randomized into groups of 10 prior to experimentation.
Test compounds were dissolved in either distilled water or distilled water plus 0.1 M AMS and administered by the subcutaneous route in a final volume of 10 ml/Kg. Control animals received 10 ml/kg of the appropriate vehicle alone. Following a pretreatment period of 30 min., the mice were again placed under the heat source and the reaction tine re-determined.
Percentage quantal protection was determined as the number of mice in which the reaction time was doubled compared to pretreatment values, expressed as a percentage of the total number of mice in the group.

Another test concerns the target T1, KAPPA opiate receptor (Cavia porcellus, UniProt P41144).
T1 construct: fresh guinea pig brain homogenate; from tissue; host or cells: guinea pig whole brain without cerebellum, fresh homogenate
The experiment in a line: opiate receptors binding, KAPPA (3H-Ethyl Ketocyclazocine, guinea pig brain homogenate). Here is the method: Radio receptor binding to μ and K sites is performed on fresh guinea pig brain homogenate prepared according to Kosterlitz. (1981).
(§1) Whole brain without cerebellum is homogenized in 50 mM, Tris-buffer (pH 7.4 at 0° C.) and centrifuged at 49,000×g×10 min.
The pellet is then resuspended in the same buffer, incubated at 37° C. for 45 min. and centrifuged again. 1.9ml of the final homogenate (1:100 in Tris-pH 7.4, 0° C.) is used for the binding assay. Binding to […] sites (Magnan J., 1982) 1 3H [D-Ala2, MePhe4, Gly-o15]Enkephalin (3H-DAGO), an
is determined in the presence of 10-6M Naloxone. 1 Binding to K sites (Magnan J., 1982)
The binding to the K-sites is performed using 3H-Ethyl Ketocyclazocine, a non-selective benzomorphan compound which binds to μ, δ and K-sites, in the presence of 100nM of unlabelled DAGO and 100nM of the enkephalin analogue [DAla^2 -DLeu^5 ]Enkephalin (DADLE), to prevent μ and δ binding respectively.
Final homogenate with solutions of the cold ligand and of the labelled ligand is incubated for 40 min. at 25° C., filtered through Whatman GF/C glass filter discs and washed.
The radioactivity bound to the filters is counted by liquid scintillation spectrophotometry.
The non-specific binding is determined in the presence of 500nM of the benzomorphan non-selective compound Mr 2266.
The equilibrium dissociation constant (KD) and the maximum binding capacity (Bmax) are determined from the analysis of saturation curves, while the inhibition constant (Ki) is determined from the analysis of competition experiments (Hill 1910; Scatchard 1949; Cheng and Prusoff 1973; Gillan et al. 1980).

For test [2], the system named is mice. The test is described as follows: p-phenylquinone-induced abdominal writhing test in mice. It is filed as in vivo, mouse (male Charles River, Swiss Strain). The settings on record: Mus musculus, sc, 20 min; subcutaneous; calculated as the free base; 20 min pretreatment, p-phenylquinone 2 mg/Kg i.p. Here is the method: (A) P-phenylquinone-induced abdominal writhing test in mice
The methodology employed is based on that described by Sigmund et al, Proc. Soc. Exptl. Biol. 95, 729/1957, modified by Milne and Twomey, Agents and Actions, 10, 31/1980.
Male Charles River mice (Swiss Strain), 25-36g body weight, were used. Animals were allowed food and water ad libitum and were randomized into groups of 10 prior to experimentation. Test compounds were dissolved in either distilled water or distilled water plus 0.1 M AMS, and administered by the subcutaneous route in a final volume of 10 ml/Kg. Control animals received 10 ml/Kg of the appropriate vehicle alone. Following a pretreatment period of 20 min., mice were injected intraperitoneally with p-phenylquinone, 2 mg/Kg at 37° C. in a final volume of […]. […] During this period the number of abdominal writhing responses per animal were recorded where writhing consists of an intermittent contraction of the abdomen associated with hind leg extension.
The degree of antinociceptive protection afforded by the test compound was determined as the mean number of writhing responses observed in the treated group (T) expressed as a percentage of the mean number of writhing responses in the control group (C) according to the following formula:
[1-(T/C]×100%=% graded protection

The target in a further test is T2, MU opiate receptor (Cavia porcellus, UniProt A0ACM8Q262).
T2 construct: 3H-DAGO displacement
The experiment in a line: opiate receptors binding, MU (3H-DAGO, guinea pig brain homogenate). How it is done:
Radio receptor binding to μ and K sites is performed on fresh guinea pig brain homogenate prepared according to Kosterlitz.
as §1
The pellet is then resuspended in the same buffer, incubated at 37° C. for 45 min. and centrifuged again. 1.9ml of the final homogenate (1:100 in Tris-pH 7.4, 0° C.) is used for the binding assay.
The filters are then dryed, solubilized in Filtercount and the radioactivity monitored. Non specific binding
is determined in the presence of 10-6M Naloxone.

[3] abbreviates: fresh guinea pig brain homogenate, 3H-Ethyl Ketocyclazocine with 100nM DAGO and 100nM DADLE, 25° C., 40 min, read-out: OPIATE RECEPTORS BINDING KAPPA Ki.
The mark [4] stands for this setting: read-out: OPIATE RECEPTORS BINDING MU Ki, fresh guinea pig brain homogenate, 25° C., 40 min.
[5] abbreviates: fresh guinea pig brain homogenate, 25° C., 40 min, read-out: OPIATE RECEPTORS BINDING MU Ki.

Each structure is given as a SMILES string. pKi: −log10 of the molar value. Structures can show the parent of a compound that is named as a salt. Where two headings read alike, the source gives them in different places.

T1 sequence (P41144 whole entry): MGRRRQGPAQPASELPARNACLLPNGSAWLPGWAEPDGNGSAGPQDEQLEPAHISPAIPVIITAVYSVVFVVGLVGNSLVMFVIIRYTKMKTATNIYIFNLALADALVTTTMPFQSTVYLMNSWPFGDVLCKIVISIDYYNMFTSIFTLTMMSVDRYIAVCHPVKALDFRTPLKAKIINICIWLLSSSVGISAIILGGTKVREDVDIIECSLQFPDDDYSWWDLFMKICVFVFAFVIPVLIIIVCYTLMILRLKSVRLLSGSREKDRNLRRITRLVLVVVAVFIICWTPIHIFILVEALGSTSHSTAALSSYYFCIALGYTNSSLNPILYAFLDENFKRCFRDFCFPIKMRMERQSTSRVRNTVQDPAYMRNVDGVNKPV
T2 sequence (A0ACM8Q262 1-400): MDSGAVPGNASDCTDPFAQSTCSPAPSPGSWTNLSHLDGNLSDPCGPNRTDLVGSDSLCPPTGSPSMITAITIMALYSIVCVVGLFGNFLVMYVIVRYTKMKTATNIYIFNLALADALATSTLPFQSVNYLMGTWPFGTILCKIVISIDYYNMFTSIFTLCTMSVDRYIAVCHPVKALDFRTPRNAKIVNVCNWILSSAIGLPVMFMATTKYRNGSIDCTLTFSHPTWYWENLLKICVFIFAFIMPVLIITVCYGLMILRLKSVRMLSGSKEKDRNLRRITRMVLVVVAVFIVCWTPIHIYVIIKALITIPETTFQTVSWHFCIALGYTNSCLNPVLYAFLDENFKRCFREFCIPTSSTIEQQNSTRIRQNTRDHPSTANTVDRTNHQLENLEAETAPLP

For `C[C@@H]1Cc2ccccc2[C@H](CN2CCCC2)N1C(=O)Cc1ccc(Cl)c(Cl)c1` (relative stereo) [Example 1, 1-(pyrrolidin-1-yl)methyl-2-(3,4-dichlorophenyl)acetyl-3-methyl-1,2,3,4-tetrahydroisoquinoline hydrochloride 1/3 hydrate. Diastereoisomer CIS], the ED50 was 0.033 mg/kg in the test on mice [1] and 0.021 mg/kg with mice [2]. The pKi on KAPPA opiate receptor (setting [3]) was 8.58; on MU opiate receptor (setting [4]), 7.83.
With `C[C@@H]1CN(C(=O)Cc2ccc(Cl)c(Cl)c2)[C@@H](CN2CCCC2)c2ccccc21` (relative stereo) [Example 3, 1-(pyrrolidin-1-yl)methyl-2-(3,4-dichlorophenyl)acetyl-4-methyl-1,2,3,4-tetrahydroisoquinoline hydrochloride. Diastereoisomer TRANS], the values for the ED50 in the test on mice [1] and with mice [2] were 0.046 mg/kg and 0.036 mg/kg, respectively. Further, the pKi at KAPPA opiate receptor (setting [3]) was 8.32; at MU opiate receptor (setting [4]), 6.91.
For the molecule `C[C@H]1CN(C(=O)Cc2ccc(Cl)c(Cl)c2)[C@@H](CN2CCCC2)c2ccccc21` (relative stereo) [Example 4, 1-(pyrrolidin-1-yl)methyl-2-(3,4-dichlorophenyl)acetyl-4-methyl-1,2,3,4-tetrahydroisoquinoline hydrochloride. Diastereoisomer CIS], the ED50 in the test on mice [1] was 0.459 mg/kg; with mice [2], 0.282 mg/kg. Further, the pKi on KAPPA opiate receptor (setting [3]) is 7.85; on MU opiate receptor (setting [4]) it was 5.94.
On to `CC1Cc2ccccc2C(CN2CCCC2)N1C(=O)Cc1ccc(Cl)c(Cl)c1` (single isomer, unassigned) [Example 42, (-)-1-(pyrrolidin-1-yl)methyl-2-(3,4-dichlorophenyl)acetyl-3-methyl-1,2,3,4-tetrahydroisoquinoline D(-) tartrate], for which the ED50 with mice [1] is 0.021 mg/kg; in the test on mice [2], 0.01 mg/kg. Also, the values for the pKi on KAPPA opiate receptor (setting [3]) and at MU opiate receptor (setting [4]) were 8.65 and 7.95, respectively.
In the same order, the values of `O=C(Cc1ccc(Cl)c(Cl)c1)N1CCc2c(O)cccc2C1CN1CCCC1` (stereo not drawn) [Example 5, 1-(pyrrolidin-1-yl)methyl-2-(3,4-dichlorophenyl)acetyl-5-hydroxy-1,2,3,4-tetrahydroisoquinoline] are 0.009 mg/kg, 0.005 mg/kg, 9.37 and 9.16.
With `COc1cccc2c1CCN(C(=O)Cc1ccc(Cl)c(Cl)c1)C2CN1CCCC1` (stereo not drawn) [Example 6, 1-(pyrrolidin-1-Yl)methyl-2-(3,4-dichlorophenyl)acetyl-5-methoxy-1,2,3,4-tetrahydroisoquinoline], the ED50 in the test on mice [1] is 0.054 mg/kg; in the test with mice [2], 0.047 mg/kg. For the same molecule, the pKi is 8.40 on KAPPA opiate receptor and 6.56 at MU opiate receptor (setting [5]).
In the case of `O=C(Cc1ccc(Cl)c(Cl)c1)N1CCc2c(Cl)cccc2C1CN1CCCC1` (stereo not drawn) [Example 7, 1-(pyrrolidin-1-yl)methyl-2-(3,4-dichlorophenyl)acetyl-5-chloro-1,2,3,4-tetrahydroisoquinoline hydrochloride], the ED50 in the test on mice [1] was 0.836 mg/kg. Moreover, the pKi on KAPPA opiate receptor was 7.36; on MU opiate receptor (setting [5]), 5.80.
As to `CN(C)CC1c2cccc(O)c2CCN1C(=O)Cc1ccc(Cl)c(Cl)c1` (stereo not drawn) [Example 10, 1-dimethylaminomethyl-2-(3,4-dichlorophenyl) acetyl-5-hydroxy-1,2,3,4-tetrahydroisoquinoline.], the ED50 with mice [1] is 0.088 mg/kg. The pKi on KAPPA opiate receptor (setting [3]) is 9.38; on MU opiate receptor (setting [4]), 8.44.
Turning to `O=C(Cc1ccc(Cl)c(Cl)c1)N1CCc2cc(O)ccc2C1CN1CCCC1` (stereo not drawn) [Example 16, 1-(pyrrolidin-1-yl)methyl-2-(3,4-dichlorophenyl)acetyl-6-hydroxy-1,2,3,4-tetrahydroisoquinoline.], the ED50 in the test on mice [1] was 0.24 mg/kg. The pKi at KAPPA opiate receptor is 8.81; on MU opiate receptor (setting [5]), 6.99.
Turning to `O=C(Cc1ccc(Cl)c(Cl)c1)N1CCc2cccc(Cl)c2C1CN1CCCC1` (stereo not drawn) [Example 27, 1-(pyrrolidin-1-yl)methyl-2-(3,4-dichlorophenyl)acetyl-8-chloro-1,2,3,4-tetrahydroisoquinoline hydrochloride 1/4hydrate], in the test on mice [1], the ED50 was 0.092 mg/kg. Also, the pKi at KAPPA opiate receptor was 8.26; on MU opiate receptor (setting [5]), 6.43.

These data come from patent US4954509A, “Isoquinoline derivatives and their use as analgesics” (Dr. Lo. Zambeletti S.p.A., priority 1988, dated 1990).
